Experimental data: publication PMC3407795 (EJNMMI Research, 2012)
Where two headings read alike, the source gives them in different places.

How the values were obtained:
[1] = Biodistribution in healthy mice; assay type: in vivo; conditions: male, mouse, 10 pmol total peptide, total radioactivity, healthy Swiss albino mice, iv 10 pmol; for tissue uptake at 4 h: 4 h pi
Protocol: In the in vivo receptor blockade animal group, excess Tate (50 nmol) was administered intravenously (iv) together with the radioligand. Animals were sacrificed in groups of four at 4- and 24-h time points post injection (pi). […] Tissue distribution data were calculated as percent injected dose per gram (%ID/g) applying a suitable algorithm.
The in vivo data presented as mean %ID/g ± SD (n ≥ 4) were statistically analyzed with Student’s t test (Prism^TM 2.01, GraphPad Software, San Diego, CA, USA). Analyses were 2-tailed, and a P value < 0.05 was considered statistically significant.

[2] = Metabolism in blood (in vivo stability); parameters: species or system mouse; conditions: healthy male Swiss albino mice, blood collected 5 min after iv injection (3 nmol), RP-HPLC radioanalysis
Protocol: The animals were kept for 5 min in cages with free access to water. They were sacrificed by cardiac puncture under ether anesthesia, and blood was withdrawn with a syringe and immediately placed in a pre-chilled EDTA-containing polypropylene vial on ice. Blood samples were centrifuged at 2,000 × g at 4 °C for 10 min.

- tissue uptake at 4 h ([1]; kidney, read-out: Kidney uptake): 10.9 %ID/g
- tissue uptake at 24 h ([1]; kidney, 24 h pi): 6.6 %ID/g
- tissue uptake at 4 h ([1]; pancreas, read-out: Pancreas uptake): < 0.5 %ID/g
- intact radiopeptide detected in blood [2]: 2%
Structure (SMILES): C[C@H](NC(=O)CN1CCN(CC(=O)O)CCN(CC(=O)O)CCN(CC(=O)O)CC1)C(=O)NCC(=O)N[C@H]1CSSC[C@@H](C(=O)O)NC(=O)[C@H](CO)NC(=O)[C@H]([C@@H](C)O)NC(=O)[C@H](Cc2ccccc2)NC(=O)[C@H]([C@@H](C)O)NC(=O)[C@H](CCCCN)NC(=O)[C@H](Cc2c[nH]c3ccccc23)NC(=O)[C@H](Cc2ccccc2)NC(=O)[C@H](Cc2ccccc2)NC(=O)[C@H](CC(N)=O)NC(=O)[C@H](CCCCN)NC1=O [[^111In]AT1S, metal not drawn]
